# Experimental data published in BindingDB's records for doi:10.3109/14756366.2010.521745 (Sun Yat-Sen University, 2011).
# pIC50: −log10 of the molar value.
# Target: T1, Polyphenol oxidase 1 (White button mushroom, UniProt Q00024)
# T1 sequence (Q00024 whole entry): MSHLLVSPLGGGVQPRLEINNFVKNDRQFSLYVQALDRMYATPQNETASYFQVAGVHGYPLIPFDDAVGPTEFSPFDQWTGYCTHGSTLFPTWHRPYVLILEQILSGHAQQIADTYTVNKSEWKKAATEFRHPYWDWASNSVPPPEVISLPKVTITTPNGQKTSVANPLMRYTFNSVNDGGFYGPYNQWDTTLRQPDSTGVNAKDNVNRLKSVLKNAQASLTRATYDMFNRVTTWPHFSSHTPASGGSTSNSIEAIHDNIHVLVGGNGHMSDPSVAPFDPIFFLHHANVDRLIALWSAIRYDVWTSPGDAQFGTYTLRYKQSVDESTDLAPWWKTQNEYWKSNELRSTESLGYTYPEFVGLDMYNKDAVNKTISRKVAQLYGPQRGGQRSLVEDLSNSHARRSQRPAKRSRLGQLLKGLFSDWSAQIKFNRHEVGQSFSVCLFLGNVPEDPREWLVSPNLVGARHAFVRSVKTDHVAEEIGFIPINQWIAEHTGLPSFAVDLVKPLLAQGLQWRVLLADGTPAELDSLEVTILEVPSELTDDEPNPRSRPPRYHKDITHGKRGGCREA
# Assay: Tyrosinase Inhibition Assay
# Conditions: pH 6.8; 25 °C
# Method: In brief, a 10 μL sample was added to an assay mixture containing with 10 μL tyrosinase solution (0.5 mg/mL) and 900 μL phosphate buffer (pH 6.8) to a total volume assay mixture of 920 μL, for 20 min at 25°C. Then 80 μL of L-dopa (1.50 mg/mL) was added to the reaction mixture and the enzyme reaction was monitoredby measuring the change in absorbance at 475 nm of the L-dopa for 1 min.
row,pIC50,Compound
1,5.85,"O=C(c1cc(O)c(O)c(O)c1)c1ccc(O)c(O)c1O [Polyhydroxy benzophenone, 10]"
2,< 4.00,O=C(c1ccc(O)cc1)c1ccc(O)c(O)c1O [hsp90_136]
3,5.19,"COc1cc(C(=O)c2ccc(O)c(O)c2O)ccc1O [Polyhydroxy benzophenone, 9]"
4,4.01,"O=C(c1ccc(O)cc1)c1cc(O)c(O)c(O)c1 [Polyhydroxy benzophenone, 14]"
5,4.76,"O=C(c1cc(O)c(O)c(O)c1)c1ccc(O)cc1O [Polyhydroxy benzophenone, 6]"
6,< 3.70,"COc1cc(C(=O)c2ccc(O)cc2O)ccc1O [Polyhydroxy benzophenone, 5]"
7,< 3.70,"O=C(c1ccccc1)c1c(O)cc(O)cc1O [Polyhydroxy benzophenone, 16]"
8,< 3.70,"O=C(c1cccc(O)c1)c1ccc(O)cc1O [Polyhydroxy benzophenone, 12]"
9,5.06,"O=C(c1ccccc1O)c1ccc(O)c(O)c1O [Polyhydroxy benzophenone, 15]"
10,4.98,"O=C(c1ccccc1)c1ccc(O)c(O)c1O [phenyl(2,3,4-trihydroxyphenyl)methanone]"
11,< 3.70,"O=C(c1ccc(O)cc1O)c1c(O)cc(O)cc1O [Polyhydroxy benzophenone, 11]"
12,< 3.70,"O=C(c1ccc(O)cc1O)c1ccc(O)cc1O [Polyhydroxy benzophenone, 4]"
13,< 3.70,"O=C(c1ccccc1)c1cccc(O)c1O [Polyhydroxy benzophenone, 18]"
14,5.00,"O=C(c1ccc(O)cc1O)c1ccc(O)c(O)c1O [Polyhydroxy benzophenone, 8]"
